Data set [1] concerns Strep. pyogenes C-203. As to the kind of experiment: median protective dose in mice given lethal systemic infections, Strep. pyogenes C-203. Type of data set: in vivo. Particulars: Streptococcus pyogenes, single dose at time of challenge, read-out: median protective dose (PD50). The protocol: (§1) The in vivo activity is obtained when the compounds are tested according to the procedure of Miller, et al (Proc. Soc. Exp. Biol. Med. 57, 261, 1944). The median protective dose (PD50) was determined in mice given lethal systemic infections. Single doses of compound were given at time of challenge.
(§2) By use of the above methods, the following minimum inhibiting concentration values (MICs in μg/mL), PD50 's in mg/kg, no effect phototoxicity dose in mg/kg and the cytotoxicity IC50 in μg/mL were obtained for representative enantiomers of the invention and compounds of the prior art as shown in the table.
(§3) The in vivo data as PD50 s are reported below the line of MICs for the same compound.

The subject of a further data set is Staph. aureus H 228. Put plainly: in vitro antibacterial activity, microtitration dilution (MIC), Staph. aureus H 228. Particulars: Staphylococcus aureus, H228, read-out: minimum inhibiting concentration (MIC). In kind it is cell-based. The method in brief: (§4)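 MIC determined in vitro by microtitration broth dilution; values reported in μg/mL.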
For a further data set, the system named is Staph. aureus UC-76. As to the kind of experiment: in vitro antibacterial activity, microtitration dilution (MIC), Staph. aureus UC-76. In kind it is cell-based. Particulars: Staphylococcus aureus, UC76, read-out: minimum inhibiting concentration (MIC). The method in brief: as §4
The subject of data set [2] is Strep. pheumoniae SV-1. Put plainly: in vitro antibacterial activity, microtitration dilution (MIC), Strep. pneumoniae SV-1. Type of data set: cell-based. Particulars: Streptococcus pneumoniae, SV1, read-out: minimum inhibiting concentration (MIC). The method in brief: as §4
Another data set has as its system Prot. rettgeri M 1771. Put plainly: in vitro antibacterial activity, microtitration dilution (MIC), Prot. rettgeri M 1771. Type of data set: cell-based. Particulars: Providencia rettgeri, M1771, read-out: minimum inhibiting concentration (MIC). The method, boiled down: as §4
The next data set deals with Strep. faecalis MGH-2. Put plainly: in vitro antibacterial activity, microtitration dilution (MIC), Strep. faecalis MGH-2. In kind it is cell-based. Particulars: Enterococcus faecalis, MGH2, read-out: minimum inhibiting concentration (MIC). The method in brief:
as §4

Data set [3] relates to Esch. coli Vogel. As to the kind of experiment: median protective dose in mice given lethal systemic infections, Esch. coli Vogel. Particulars: Escherichia coli, single dose at time of challenge, read-out: median protective dose (PD50). Type of data set: in vivo. As for the experimental part:
as §1, §2, §3

In data set [4] the test system is Strep. pyogenes C-203. As to the kind of experiment: in vitro antibacterial activity, microtitration dilution (MIC), Strep. pyogenes C-203. Type of data set: cell-based. Particulars: Streptococcus pyogenes, C203, read-out: minimum inhibiting concentration (MIC). The method in brief:
as §4

The next data set deals with Klebs. pneumoniae MGH-2. Put plainly: in vitro antibacterial activity, microtitration dilution (MIC), Klebs. pneumoniae MGH-2. In kind it is cell-based. Particulars: Klebsiella pneumoniae, MGH2, read-out: minimum inhibiting concentration (MIC). The method, boiled down: as §4
The subject of the next data set is Ent. cloacae MA2646. Put plainly: in vitro antibacterial activity, microtitration dilution (MIC), Ent. cloacae MA2646. Type of data set: cell-based. Particulars: Enterobacter cloacae, read-out: minimum inhibiting concentration (MIC). The method, boiled down: as §4
For data set [5], the system named is Esch. coli Vogel. Put plainly: in vitro antibacterial activity, microtitration dilution (MIC), Esch. coli Vogel. In kind it is cell-based. Particulars: Escherichia coli, read-out: minimum inhibiting concentration (MIC). The method in brief: as §4
The next data set can be described thus: in vivo. Particulars: mouse, po. On the set-up: species or system mice. As for the experimental part: The phototoxicity data is obtained using depilated mice. The compound was administered orally each day for four successive days, followed each day by 3 hours of UVA radiation. The mice were examined for any positive signs (redness, erythema) relative to control animals. The no effect dose and the 50% effect dose were determined. By use of the above methods, the following minimum inhibiting concentration values (MICs in μg/mL), PD50 's in mg/kg, no effect phototoxicity dose in mg/kg and the cytotoxicity IC50 in μg/mL were obtained for representative enantiomers of the invention and compounds of the prior art as shown in the table.

A further data set concerns Pseud. aeruginosa UI-18. As to the kind of experiment: in vitro antibacterial activity, microtitration dilution (MIC), Pseud. aeruginosa UI-18. Type of data set: cell-based. Particulars: Pseudomonas aeruginosa, UI18, read-out: minimum inhibiting concentration (MIC). The method in brief: as §4
A short description of data set [6]: cytotoxicity, hamster V-79 cells, colony reduction. Type of data set: cell-based. Particulars: 3 hours treatment, colonies counted after 5 days, read-out: Cytotox (cytotoxicity IC50). As for the experimental part: The cytotoxicity data is obtained using hamster V-79 cells. The cells were suspended in tissue culture medium and grown overnight. Cells were treated with drug for 3 hours, washed free of drug and then replated, and the colonies counted after 5 days. The concentration of drug that reduced colones by 50% relative to control was recorded.
as §2

The test system of data set [7] is Strep. pheumoniae SV-1. As to the kind of experiment: median protective dose in mice given lethal systemic infections, Strep. pneumoniae SV-1. Particulars: Streptococcus pneumoniae, single dose at time of challenge, read-out: median protective dose (PD50). In kind it is in vivo. As for the experimental part:
as §1, §2, §3

In brackets after ≈: the same amount, converted by molar mass. Where two headings read alike, the source gives them in different places.

Broadly, the NOAEL is the highest dose or exposure tested at which no adverse effect was seen.

On to `CN[C@@H](C)[C@@H]1CCN(c2c(F)cc3c(=O)c(C(=O)O)cn(C4CC4)c3c2OC)C1` [Example 36, 3R,1S-1-cyclopropyl-6-fluoro-7-[3-(1-N-methylaminoethyl)-1-pyrrolidinyl]-8-methoxy-1,4-dihydro-4-oxo-3-quinolinecarboxylic acid], for which the ED50 with Strep. pyogenes C-203 [1] (C203, PO) was 1 mg/kg; with Strep. pyogenes C-203 [1] (C203, SC), 0.1 mg/kg; with Esch. coli Vogel [3] (PO) it was 4 mg/kg; with Esch. coli Vogel [3] (SC) it was 1 mg/kg. Also, the MIC with Staph. aureus H 228 stood at 0.013 µg/mL (≈ 0.0322 µM); with Staph. aureus UC-76, 0.013 µg/mL (≈ 0.0322 µM); with Strep. pheumoniae SV-1 [2], 0.013 µg/mL (≈ 0.0322 µM); in the data set on Prot. rettgeri M 1771 it was 0.2 µg/mL (≈ 0.496 µM); in the data set on Strep. faecalis MGH-2 it was 0.025 µg/mL (≈ 0.062 µM); in the data set on Strep. pyogenes C-203 [4], 0.003 µg/mL (≈ 0.00744 µM). Besides, the MIC is 0.1 µg/mL (≈ 0.248 µM) with Klebs. pneumoniae MGH-2, 0.05 µg/mL (≈ 0.124 µM) in the data set on Ent. cloacae MA2646, 0.05 µg/mL (≈ 0.124 µM) in the data set on Esch. coli Vogel [5] and 0.8 µg/mL (≈ 1.98 µM) in the data set on Pseud. aeruginosa UI-18. Moreover, the NOAEL at 96 h in the data set “in vivo” was > 100 mg/kg. Also, in data set [6], the CC50 at 3 h was found to be 33 µg/mL (≈ 81.8 µM).

Take `C[C@H](N)[C@@H]1CCN(c2nc3c(cc2F)c(=O)c(C(=O)O)cn3C2CC2)C1` (relative stereo) [reference compound]: the MIC in the data set on Staph. aureus H 228 worked out at 0.05 µg/mL (≈ 0.139 µM); in the data set with Prot. rettgeri M 1771 it was 0.2 µg/mL (≈ 0.555 µM); with Strep. faecalis MGH-2 it was 0.05 µg/mL (≈ 0.139 µM); in the data set with Klebs. pneumoniae MGH-2, 0.1 µg/mL (≈ 0.277 µM); in the data set on Ent. cloacae MA2646, 0.05 µg/mL (≈ 0.139 µM). The molecule also gave an NOAEL at 96 h in “in vivo” of 55 mg/kg. The CC50 at 3 h in data set [6] came out at 48 µg/mL (≈ 133 µM).

As to `C[C@@H](N)[C@@H]1CCN(c2cc3c(cc2F)c(=O)c(C(=O)O)cn3C2CC2)C1` [Example 4, 3R,1R-1-cyclopropyl-6-fluoro-7-[3-(1-aminoethyl)-1-pyrrolidinyl]-1,4-dihydro-4-oxo-3-quinolinecarboxylic acid], the MIC in the data set on Staph. aureus H 228 was 0.2 µg/mL (≈ 0.556 µM); in the data set on Staph. aureus UC-76, 0.05 µg/mL (≈ 0.139 µM); with Strep. pheumoniae SV-1 [2], 0.025 µg/mL (≈ 0.0696 µM); in the data set on Prot. rettgeri M 1771 it was 0.8 µg/mL (≈ 2.23 µM); in the data set on Strep. faecalis MGH-2, 0.1 µg/mL (≈ 0.278 µM); in the data set on Strep. pyogenes C-203 [4], 0.1 µg/mL (≈ 0.278 µM). In addition, the MIC with Klebs. pneumoniae MGH-2 came out at 0.4 µg/mL (≈ 1.11 µM); in the data set with Ent. cloacae MA2646, 0.2 µg/mL (≈ 0.556 µM); with Esch. coli Vogel [5], 0.1 µg/mL (≈ 0.278 µM); in the data set on Pseud. aeruginosa UI-18, 1.6 µg/mL (≈ 4.45 µM). In addition, the ED50 in the data set with Strep. pheumoniae SV-1 [7] (SV1, PO) stood at 105 mg/kg; with Strep. pheumoniae SV-1 [7] (SV1, SC), 2 mg/kg; with Esch. coli Vogel [3] (PO) it was 72 mg/kg; with Esch. coli Vogel [3] (SC), 2 mg/kg. The CC50 at 3 h in [6] was determined as 140 µg/mL (≈ 390 µM).

As to `CCN[C@@H](C)[C@@H]1CCN(c2nc3c(cc2F)c(=O)c(C(=O)O)cn3-c2ccc(F)cc2F)C1` [Example 50, 3R,1S-7-[3-(1-N-ethylaminoethyl)-1-pyrrolidinyl]-1-(2,4-difluorophenyl)-6-fluoro-1,4-dihydro-4-oxo-1,8-naphthyridine-3-carboxylic acid], the MIC came to 0.05 µg/mL (≈ 0.109 µM) in the data set with Staph. aureus H 228; 0.013 µg/mL (≈ 0.0282 µM) in the data set on Staph. aureus UC-76; 0.1 µg/mL (≈ 0.217 µM) in the data set on Strep. pheumoniae SV-1 [2]; 1.6 µg/mL (≈ 3.47 µM) in the data set with Prot. rettgeri M 1771; 0.2 µg/mL (≈ 0.434 µM) in the data set on Strep. faecalis MGH-2; 0.1 µg/mL (≈ 0.217 µM) in the data set with Strep. pyogenes C-203 [4]. Moreover, the MIC in the data set with Klebs. pneumoniae MGH-2 amounted to 0.8 µg/mL (≈ 1.74 µM); with Ent. cloacae MA2646, 0.8 µg/mL (≈ 1.74 µM); with Esch. coli Vogel [5] it was 0.4 µg/mL (≈ 0.869 µM); in the data set with Pseud. aeruginosa UI-18, 3.1 µg/mL (≈ 6.73 µM). The ED50 worked out at 2 mg/kg in the data set with Strep. pheumoniae SV-1 [7] (SV1, PO) and 2 mg/kg in the data set with Strep. pheumoniae SV-1 [7] (SV1, SC).

Values taken from patent publication US5563155A, “Individual stereosiomers of 7-[3-(aminoalkyl)-1-pyrrolidinyl]-quinolones and naphthyridones as antibacterial agents” (Warner-Lambert Company, priority 1995, dated 1996).
